The values below come from patent US11235976B2, “Nanocarbon-iron composite system as well as composition, preparation method and use thereof” (Chongqing Lummy Pharmaceutical Co., LTD, priority 2017, dated 2022).

Holding throughout (assay): Cell experiment, cell survival rate
What all share (type): cell-based
Details in all cases: 48 h

The test system of experiment [1] is A549 lung cancer cells. On the procedure:
(§1) Cells growing in a log phase are collected, the concentration of the cell suspension is adjusted, 100 μL of cell suspension is added to each well and the cells are plated (edge wells are filled with sterile PBS) at a density of 1×10^3-10^4 cells/well. The cells are incubated for 24 hours at 37° C. under the condition of 5% CO2, a nanocarbon-iron solution having a concentration gradient (nanocarbon content: 125, 62.5, 15.63 and 3.91 μg/mL; and ferric ion content: 13.65, 6.83, 1.71 and 0.43 μg/mL) is added, and three sub-wells are set. Then the cells are incubated for 48 hours at 37° C. under the condition of 5% CO2. 10 μL of CCK8 solution is added to each well and then the cells are continuously incubated for 2 hours. The absorbance of each well is measured at OD=450 nm with the microplate reader. In addition, a negative control group, nanocarbon control groups having the same concentration and iron preparation control groups having the same concentration are set.
as §1, with “and 1” for “100”, “of a 6-well plate” for “and the cells are plated (edge wells are filled with sterile PBS)”, “3×10^4” for “1×10^3-10^4”, “1.71,” for “1.71 and”, “The” for “10 μL of CCK8 solution is added to each well and then the”, “trypsinized and counted.” for “continuously incubated for 2 hours. The absorbance of each well is measured at OD=450 nm with the microplate reader.”

Experiment [2] deals with HCT116 colon cancer cells. Here is the method:
as §1
as §1, with “and 1” for “100”, “of a 6-well plate” for “and the cells are plated (edge wells are filled with sterile PBS)”, “3×10^4” for “1×10^3-10^4”, “1.71,” for “1.71 and”, “The” for “10 μL of CCK8 solution is added to each well and then the”, “trypsinized and counted.” for “continuously incubated for 2 hours. The absorbance of each well is measured at OD=450 nm with the microplate reader.”

For experiment [3], the system named is Hela cervical cancer cells. Here is the method:
as §1
as §1, with “and 1” for “100”, “of a 6-well plate” for “and the cells are plated (edge wells are filled with sterile PBS)”, “3×10^4” for “1×10^3-10^4”, “1.71,” for “1.71 and”, “The” for “10 μL of CCK8 solution is added to each well and then the”, “trypsinized and counted.” for “continuously incubated for 2 hours. The absorbance of each well is measured at OD=450 nm with the microplate reader.”

The test system of experiment [4] is MDA-MB-231 breast cancer cells. Here is the method:
as §1
as §1, with “and 1” for “100”, “of a 6-well plate” for “and the cells are plated (edge wells are filled with sterile PBS)”, “3×10^4” for “1×10^3-10^4”, “1.71,” for “1.71 and”, “The” for “10 μL of CCK8 solution is added to each well and then the”, “trypsinized and counted.” for “continuously incubated for 2 hours. The absorbance of each well is measured at OD=450 nm with the microplate reader.”

Experiment [5] deals with SGC-7901 stomach cancer cells. On the procedure:
as §1
as §1, with “and 1” for “100”, “of a 6-well plate” for “and the cells are plated (edge wells are filled with sterile PBS)”, “3×10^4” for “1×10^3-10^4”, “1.71,” for “1.71 and”, “The” for “10 μL of CCK8 solution is added to each well and then the”, “trypsinized and counted.” for “continuously incubated for 2 hours. The absorbance of each well is measured at OD=450 nm with the microplate reader.”

For experiment [6], the system named is SKOV3 ovarian cancer cells. On the procedure:
as §1
as §1, with “and 1” for “100”, “of a 6-well plate” for “and the cells are plated (edge wells are filled with sterile PBS)”, “3×10^4” for “1×10^3-10^4”, “1.71,” for “1.71 and”, “The” for “10 μL of CCK8 solution is added to each well and then the”, “trypsinized and counted.” for “continuously incubated for 2 hours. The absorbance of each well is measured at OD=450 nm with the microplate reader.”

[7] abbreviates: iron preparation alone 0.43 μg/mL.
Setting [8] is: iron preparation alone 1.71 μg/mL.
Setting [9] is: iron preparation alone 6.83 μg/mL.
The mark [10] stands for this setting: iron preparation alone 13.65 μg/mL.

Regarding ammonium ferric citrate, the “Cell Survival Rate” value is 97.21% in experiment [1] (setting [7]); 99.64% in experiment [1] (setting [8]); 95.76% in experiment [1] (setting [9]); 94.67% in experiment [1] (setting [10]); 97.31% in experiment [2] (setting [7]); 98.12% in experiment [2] (setting [8]). The “Cell Survival Rate” value in experiment [2] (setting [9]) is recorded as 94.03%; in experiment [2] (setting [10]) it was 95.31%; in experiment [3] (setting [7]), 100%; in experiment [3] (setting [8]), 99.34%; in experiment [3] (setting [9]), 97.46%; in experiment [3] (setting [10]), 93.67%. Besides, the “Cell Survival Rate” value in experiment [4] (setting [7]) worked out at 100%; in experiment [4] (setting [8]), 100%; in experiment [4] (setting [9]) it was 97.28%; in experiment [4] (setting [10]) it was 95.12%; in experiment [5] (setting [7]), 97.85%; in experiment [5] (setting [8]), 95.31%. The “Cell Survival Rate” value in experiment [5] (setting [9]) was 96.41%; in experiment [5] (setting [10]), 100%; in experiment [6] (setting [7]) it was 95.67%; in experiment [6] (setting [8]) it was 99.46%; in experiment [6] (setting [9]) it was 94.36%.
